# Measured values taken from patent US20130150376A1, “Novel Sultam Compounds” (PFIZER INC., priority 2010, published 2013).
# Where a name gives a salt, the structure may show the parent alone. Read-outs that look alike come from different tables or passages of the source.
# Target: T1, BACE1 enzyme (soluble, truncated BACE enzyme, BACE1deltaTM96His) (Homo sapiens, UniProt P56817)
# T1 construct: soluble, truncated BACE enzyme (BACE1deltaTM96His); His; made in house
# Assay: BACE1 Fluorescent Polarization (FP) Assay
# Assay type: biochemical
# Details: geometric mean of 2-4 IC50 determinations unless footnoted (^2: 5-6 determinations; ^4: single determination)
# Description: BACE1 Fluorescent Polarization (FP) Assay
# The fluorescently tagged synthetic substrate, Biotin-GLTNIKTEEISEISŶEVEFR-C[oregon green]KK-OH can be efficiently cleaved by the beta-secretase enzyme and is therefore useful to assay beta-secretase activity in the presence or absence of inhibitory compounds. The his tagged BACE1 enzyme was affinity purified material from conditioned media of CHO-K1 cells that had been transfected to express soluble, truncated BACE enzyme (BACE1deltaTM96His). Compounds were incubated in a ½ log dose response (from a top concentration of 100 μM) with BACE1 enzyme (0.1 nM final) and the biotinylated fluorescent peptide substrate (150 nM final) in assay buffer containing 100 mM sodium acetate, pH 4.5 (brought to pH with acetic acid), and 0.001% Tween-20. Total reaction volumes of 30 μL were carried out in 384-well black plates (Thermo Scientific 4318). Plates were covered and incubated for 3 hours at 37° C. The reactions were then stopped by addition of 30 μL of 1.5 μM Streptavidin (Pierce, 21125). After a 10 minute incubation at room temperature, plates were read on a PerkinElmer Envision for fluorescence polarization (Ex485 nm/Em530 nm). The activity of the beta-secretase enzyme is detected by changes in the fluorescence polarization (Δ mP) that occur when the substrate is cleaved by the enzyme.
# [1] = 8-point curve, read-out: BACE activity, 8-point curve, IC50
# [2] = 11-point curve, read-out: BACE activity, 11-point curve, IC50
# T1 sequence (P56817 46-457): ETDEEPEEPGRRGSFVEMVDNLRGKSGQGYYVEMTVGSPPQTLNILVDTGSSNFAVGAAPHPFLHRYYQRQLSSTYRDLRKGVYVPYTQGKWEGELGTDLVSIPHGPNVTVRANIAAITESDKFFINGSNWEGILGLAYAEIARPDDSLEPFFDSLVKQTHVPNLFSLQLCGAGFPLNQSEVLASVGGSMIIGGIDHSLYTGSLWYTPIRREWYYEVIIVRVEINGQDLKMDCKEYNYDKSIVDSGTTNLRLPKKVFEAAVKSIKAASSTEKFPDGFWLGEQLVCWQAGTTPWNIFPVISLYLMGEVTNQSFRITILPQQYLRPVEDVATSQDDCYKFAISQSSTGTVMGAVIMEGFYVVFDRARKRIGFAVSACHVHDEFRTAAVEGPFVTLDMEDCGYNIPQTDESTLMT
Compound,IC50 [1],IC50 [2]
"Cc1ccccc1-c1cccc(CN2CC[C@]3(C=CS(=O)(=O)N3c3cccc(F)c3)C[C@@H]2C)c1 [Example 54, (5R,7S)-1-(3-fluorophenyl)-7-methyl-8-[(2′-methylbiphenyl-3-yl)methyl]-2-thia-1,8-diazaspiro[4.5]dec-3-ene 2,2-dioxide]",0.0533 µM,0.137 µM
"CCOc1cc(CN2CC[C@]3(C=CS(=O)(=O)N3c3cccc(F)c3)C[C@@H]2C)ccc1O [Example 27, 2-ethoxy-4-{[(5R,7S)-1-(3-fluorophenyl)-7-methyl-2,2-dioxido-2-thia-1,8-diazaspiro[4.5]dec-3-en-8-yl]methyl}phenol]",0.116 µM,0.269 µM
"Cc1ccccc1-c1cc(CN2CC[C@]3(C=CS(=O)(=O)N3c3cccc(F)c3)C[C@@H]2C)ccc1O [Example 25, 5-{[(5R,7S)-1-(3-fluorophenyl)-7-methyl-2,2-dioxido-2-thia-1,8-diazaspiro[4.5]dec-3-en-8-yl]methyl}-2′-methylbiphenyl-2-ol, hydrochloride salt]",0.0143 µM,0.0284 µM
"CC(C)Cc1ncoc1CN1CC[C@]2(CC(C)S(=O)(=O)N2c2cccc(F)c2)C[C@@H]1C (mixture of isomers) [Example 2, (5R,7S)-1-(3-Fluorophenyl)-8-[(4-isobutyl-1,3-oxazol-5-yl)methyl]-3,7-dimethyl-2-thia-1,8-diazaspiro[4.5]decane 2,2-dioxide, formate salt]",–,4.44 µM
"Cc1ccncc1-c1cccc(CN2CC[C@]3(CCS(=O)(=O)N3c3cccc(F)c3)C[C@@H]2C)c1 [Example 55, (5R,7S)-1-(3-fluorophenyl)-7-methyl-8-[3-(4-methy|pyridin-3-yl)benzyl]-2-thia-1,8-diazaspiro[4.5]decane 2,2-dioxide, hydrochloride salt]",0.392 µM,1.02 µM
"Cc1scnc1-c1cc(CN2CC[C@]3(CCS(=O)(=O)N3c3ccccn3)C[C@@H]2C)ccc1O [Example 90, 4-{[(5R,7S)-7-methyl-2,2-dioxido-1-(pyridin-2-yl)-2-thia-1,8-diazaspiro[4.5]dec-8-yl]methyl}-2-(5-methyl-1,3-thiazol-4-yl)phenol]",–,3.28 µM
"C[C@H]1C[C@@]2(C=CS(=O)(=O)N2c2cccc(F)c2)CCN1Cc1ccc(O)c(F)c1 [Example 18, 2-fluoro-4-{[(5R,7S)-1-(3-fluorophenyl)-7-methyl-2,2-dioxido-2-thia-1,8-diazaspiro[4.5]dec-3-en-8-yl]methyl}phenol, hydrochloride salt]",0.00186 µM,–
"C[C@H]1C[C@@]2(C=CS(=O)(=O)N2c2cccc(F)c2)CCN1Cc1ncoc1-c1cncc(F)c1 [Example 40, (5R,7S)-1-(3-fluorophenyl)-8-{[5-(5-fluoropyridin-3-yl)-1,3-oxazol-4-yl]methyl}-7-methyl-2-thia-1,8-diazaspiro[4.5]dec-3-ene 2,2-dioxide, hydrochloride salt]",1.38 µM,2.38 µM
"Cc1csnc1-c1cc(CN2CC[C@@]3(C[C@@H]2C)C(=O)CS(=O)(=O)N3c2cccc(F)c2)ccc1O [Example 82, (5R,7S)-1-(3-fluorophenyl)-8-[4-hydroxy-3-(4-methylisothiazol-3-yl)benzyl]-7-methyl-2-thia-1,8-diazaspiro[4.5]decan-4-one 2,2-dioxide]",–,0.0209 µM
"Cc1cccnc1-c1cc(CN2CC[C@]3(C=CS(=O)(=O)N3c3cccc(F)c3)C[C@@H]2C)ccc1F [Example 78, (5R,7S)-8-[4-fluoro-3-(3-methylpyridin-2-yl)benzyl]-1-(3-fluorophenyl)-7-methyl-thia-1,8-diazaspiro[4.5]dec-3-ene 2,2-dioxide]",–,5.65 µM
"COc1ccc2[nH]c(CN3CC[C@]4(C=CS(=O)(=O)N4c4cccc(F)c4)C[C@@H]3C)cc2c1 [Example 42, (5R,7S)-1-(3-fluorophenyl)-8-[(5-methoxy-1H-indol-2-yl)methyl]-7-methy1-2-thia-1,8-diazaspiro[4.5]dec-3-ene 2,2-dioxide]",0.117 µM,2.22 µM
"Cc1cncc(-c2ocnc2CN2CC[C@]3(CCS(=O)(=O)N3c3cccc(F)c3)C[C@@H]2C)c1 [Example 57, (5R,7S)-1-(3-fluorophenyl)-7-methyl-8-{[5-(5-methylpyridin-3-yl)-1,3-oxazol-4-yl]methyl}-2-thia-1,8-diazaspiro[4.5]decane 2,2-dioxide, hydrochloride salt]",–,4.08 µM
"C[C@H]1C[C@@]2(C=CS(=O)(=O)N2c2cccc(F)c2)CCN1Cc1scnc1-c1cncc(F)c1 [Example 44, (5R,7S)-1-(3-fluorophenyl)-8-{[4-(5-fluoropyridin-3-yl)-1,3-thiazol-5-yl]methyl}-7-methyl-2-thia-1,8-diazaspiro[4.5]dec-3-ene 2,2-dioxide, hydrochloride salt]",3.07 µM,8.46 µM
"C[C@H]1C[C@@]2(C=CS(=O)(=O)N2c2cccc(F)c2)CCN1Cc1ncoc1-c1cncnc1 [Example 23, (5R,7S)-1-(3-fluorophenyl)-7-methyl-8-[(5-pyrimidin-5-yl-1,3-oxazol-4-yl)methyl]-2-thia-1,8-diazaspiro[4.5]dec-3-ene 2,2-dioxide, hydrochloride salt]",0.428 µM,1.45 µM
"CC(C)Oc1cccc(CN2CC[C@]3(CCS(=O)(=O)N3c3cccc(F)c3)C[C@@H]2C)c1 [Example 28, (5R,7S)-1-(3-fluorophenyl)-8-(3-isopropoxybenzyl)-7-methyl-2-thia-1,8-diazaspiro[4.5]decane 2,2-dioxide]",0.521 µM,2.16 µM
"Cc1csnc1-c1cc(CN2CC[C@]3(CCS(=O)(=O)N3c3cnccn3)C[C@@H]2C)ccc1O [Example 88, 4-{[(5R,7S)-7-methyl-2,2-dioxido-1-(pyrazin-2-yl)-2-thia-1,8-diazaspiro[4.5]dec-8-yl]methyl}-2-(4-methylisothiazol-3-yl)phenol]",–,0.457 µM
"C[C@H]1C[C@@]2(C=CS(=O)(=O)N2c2cccc(F)c2)CCN1Cc1ccc(O)c(OC2CC2)c1 [Example 14, 2-(cyclopropyloxy)-4-{[(5R,7S)-1-(3-fluorophenyl)-7-methyl-2,2-dioxido-2-thia-1,8-diazaspiro[4.5]dec-3-en-8-yl]methyl}phenol]",0.0425 µM,–
"C[C@H]1C[C@@]2(C=CS(=O)(=O)N2c2cccc(F)c2)CCN1Cc1ccc(O)c(C2CCCO2)c1 (single isomer, unassigned) [Example 30]",0.208 µM,–
"C[C@H]1C[C@@]2(C=CS(=O)(=O)N2c2cccc(F)c2)CCN1Cc1ccc(O)c(C2CCC2)c1 [Example 75, 2-cyclobutyl-4-{[(5R,7S)-1-(3-fluorophenyl)-7-methyl-2,2-dioxido-2-thia-1,8-diazaspiro[4.5]dec-3-en-8-yl]methyl}phenol]",–,0.0418 µM
"C[C@H]1C[C@]2(CCN1Cc1ncoc1-c1cncnc1)CCS(=O)(=O)N2c1cccc(F)c1 [Example 33, (5R,7S)-1-(3-fluorophenyl)-7-methyl-8-[(5-pyrimidin-5-yl-1,3-oxazol-4-yl)methyl]-2-thia-1,8-diazaspiro[4.5]decane 2,2-dioxide, hydrochloride salt]",–,3.03 µM
"C[C@H]1CCO[C@H]1c1ocnc1CN1CC[C@]2(C=CS(=O)(=O)N2c2cccc(F)c2)C[C@@H]1C (relative stereo) [Example 69, (5R,7S)-1-(3-fluorophenyl)-7-methy1-8-({5-[cis-3-methyltetrahydrofuran-2-yl]-1,3-oxazol-4-yl}methyl)-2-thia-1,8-diazaspiro[4.5]dec-3-ene 2,2-dioxide]",–,7.07 µM
"CC(C)Oc1cc(CN2CC[C@]3(C=CS(=O)(=O)N3c3cccc(F)c3)C[C@@H]2C)ccc1O [Example 9, 4-{[(5R,7S)-1-(3-ftuorophenyl)-7-methyl-2,2-dioxido-2-thia-1,8-diazaspiro[4.5]dec-3-en-8-yl]methyl}-2-isopropoxyphenol]",0.0235 µM,0.0779 µM
"C[C@H]1C[C@]2(CCN1Cc1ncoc1-c1cccnc1)CCS(=O)(=O)N2c1cccc(F)c1 [Example 32, (5R,7S)-1-(3-fluorophenyl)-7-methyl-8-[(5-pyridin-3-yl-1,3-oxazol-4-yl)methyl]-2-thia-1,8-diazaspiro[4.5]decane 2,2-dioxide, hydrochloride salt]",–,4.29 µM
"C[C@H]1C[C@@]2(C=CS(=O)(=O)N2c2cccc(F)c2)CCN1Cc1ncoc1-c1cncs1 [Example 35, (5R,7S)-1-(3-fluorophenyl)-7-methyl-8-{[5-(1,3-thiazol-5-yl}-1,3-oxazol-4-yl]methyl}-2-thia-1,8-diazaspiro[4.5]dec-3-ene 2,2-dioxide]",2.18 µM,3 µM
"CC(C)Oc1cccc(CN2CC[C@]3(C=CS(=O)(=O)N3c3ccc(F)c(F)c3)C[C@@H]2C)c1 [Example 68, (5R,7S)-1-(3,4-difluorophenyl)-8-(3-isopropoxybenzyl)-7-methyl-2-thia-1,8-diazaspiro[4.5]dec-3-ene 2,2-dioxide, hydrochloride salt]",1.77 µM,5.79 µM
